In patent publication US6521669B1, “Hydroxystilbene compounds for reducing/inhibiting protein glycation” (Societe L'Oreal S.A., priority 1999, dated 2003):

Experiments:
[1] = test system: human hair proteins (keratins); assay: Glycation of isolated human hair proteins (keratins) with ribose, glycation index (Experiment 2); assay type: biochemical; details: 50 mM ribose, 50° C., 14 days
Procedure: The glycation reaction was modelled in vitro in a biochemical model using human hair proteins (keratins) as a support for glycation with ribose. The test system consisted of isolated hair, incubated in a phosphate buffer (0.2M, pH=7.4) containing 50 mM of ribose (origin: Sigma). […] The assembly was incubated at 50° C. in the absence of light and air for 14 days. Control samples, incubated in the presence and absence of ribose, were tested in parallel. After incubation for 14 days, the incubation media were removed and the hair was washed with a solution containing 10 μM of guanidium chloride and then in water of MilliQ grade in order to remove all trace of free ribose. The hair was then placed in a solution containing 50% (v/v) of ethanol and 50 mM of DTT for 15 minutes at 37° C. After washing, the samples were placed in a solution containing 10 mM of 5,5′-dithiobis-2-nitrobenzoic acid. The absorbance relating to the free […] residues was measured at 415 nm. The samples were then washed in a 50% (v/v) ethanol solution and then heated for 30 minutes at 100° C. in a 2M hydrazine monohydrate solution (pH 9.4). After addition of a 1 mg/ml solution of phenylhydrazine in a 40% (v/v) acetic acid solution, the samples were incubated for [lacuna] 60° C. and the absorbance relating to the glycated proteins was measured at 390 nm. For each sample, the glycation index was evaluated by the ratio between the absorbance at 390 nm and the absorbance at 415 nm. [formula] The groups of data (control group and treated groups) were processed by means of a variance analysis (ANOVA), followed by a Dunett test.

bovine serum albumin = bovine serum albumin (Bos taurus, UniProt P02769); assay: Glycation of bovine serum albumin with D-ribose, AGE fluorescence (Experiment 1); assay type: biochemical
Chain of bovine serum albumin (P02769 25-607): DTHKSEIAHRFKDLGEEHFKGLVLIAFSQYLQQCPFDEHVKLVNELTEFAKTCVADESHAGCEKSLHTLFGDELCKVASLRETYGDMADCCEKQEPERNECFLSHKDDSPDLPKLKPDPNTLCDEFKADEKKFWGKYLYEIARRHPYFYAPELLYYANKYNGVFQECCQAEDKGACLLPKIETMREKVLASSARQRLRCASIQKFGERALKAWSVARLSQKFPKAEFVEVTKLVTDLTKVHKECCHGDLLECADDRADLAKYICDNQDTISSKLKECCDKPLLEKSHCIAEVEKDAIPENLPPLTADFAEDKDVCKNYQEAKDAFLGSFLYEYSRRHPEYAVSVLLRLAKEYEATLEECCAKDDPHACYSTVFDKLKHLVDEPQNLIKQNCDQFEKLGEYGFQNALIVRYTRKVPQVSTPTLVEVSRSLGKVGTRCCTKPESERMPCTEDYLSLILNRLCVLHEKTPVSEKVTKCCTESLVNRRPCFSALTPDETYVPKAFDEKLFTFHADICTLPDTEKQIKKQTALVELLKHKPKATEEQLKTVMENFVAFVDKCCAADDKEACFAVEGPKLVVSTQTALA
Procedure: The glycation was evaluated by measuring the fluorescence of the AGEs at λem.=440 nm emitted by each sample after excitation at λex.=370 nm. The inhibition of glycation was visualized by the decrease in fluorescence compared with the sample treated with sugar alone.

Structure (SMILES): Oc1ccc(C=Cc2cc(O)cc(O)c2)cc1 [resveratrol, 3,5,4′-trihydroxystilbene]
- % Inhibition ([1]; resveratrol 10^−4 M): 80%
- % Inhibition ([1]; resveratrol 10^−5 M): 51%
- % Inhibition ([1]; resveratrol 10^−6 M): 59%
- % Inhibition ([1]; resveratrol 10^−7 M): 45%
- inhibition at 1 µM (bovine serum albumin): 17%
- inhibition at 10 µM (bovine serum albumin): 29.8%
